According to patent US8999984B2, “Macrophage migration inhibitory factor antagonists and methods of using same” (University of Louisville Research Foundation, Inc., priority 2006, dated 2015):
One block for each compound: values may come before it. d = 2'-deoxy (DNA); r = 2'-OH (RNA)

How the values were obtained:
recombinant MIF (rMIF) = molecular target: T1, recombinant MIF (rMIF) (Homo sapiens, UniProt P14174); assay: L-dopachrome methyl ester tautomerase assay; assay type: biochemical
T1 construct: made in house
T1 sequence (P14174 2-115 limits assumed): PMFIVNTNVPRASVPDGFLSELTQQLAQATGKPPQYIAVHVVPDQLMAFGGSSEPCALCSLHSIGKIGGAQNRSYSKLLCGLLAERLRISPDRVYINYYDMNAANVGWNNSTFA
Method: 500 nM recombinant MIF (rMIF) was pre-mixed for either 5 (filled) or 10 (open) minutes with the indicated inhibitor concentrations followed by the addition of 2 mM final concentration of L-dopachrome methyl ester substrate. 5 minutes later OD 475 was measured spectrophotometrically, with tautomerization leading to colorless substrate.
Dopachrome tautomerase assay. […] MIF catalysis and inhibitory studies can be performed as described (Lubetsky et al., 2002). […] Activity can be determined at room temperature by adding dopachrome methyl ester (0.3 ml) to a cuvette containing 500 nM rMIF (Bernhagen et al., 1994) in 50 mM potassium phosphate buffer, pH 6, 0.5 mM EDTA and 5 minutes later measuring the decrease in absorbance at 475 nm spectrophotometrically. […] Additionally, candidate inhibitors identified in the last section of the present Example can be dissolved in DMSO at various concentrations and added to the cuvette (final concentration of DMSO will be no more than 0.1%) with the MIF 1 minute prior to the addition of the dopachrome substrate.

HIF-1α [1] = assay: CoCl2-induced HIF-1α stabilization in MIA-PaCa pancreatic adenocarcinoma cells (nuclear lysate immunoblot); assay type: cell-based, human; settings: for suppression of HIF-1α, of control: 10 μM
Method: (§1) FIGS. 9A-9C are pictures of immunoblots showing MIF tautomerase inhibitors block HIF-1 stabilization in an MIF-specific manner. […] After 5 hours, nuclear lysates were isolated and subjected to immunoblotting for HIF-1. In FIGS. 9A and 9B, MIA-PaCa pancreatic adenocarcinoma cells were used. In FIG. 9C, MIF+/+ and MIF−/− mouse embryonic fibroblasts were evaluated.
As noted hereinabove, (see FIG. 4), it has been determined that MIF is necessary for hypoxia and prolyl hydroxylase inhibitor-induced HIF-1αstabilization and subsequent hypoxic adaptation of pancreatic adenocarcinoma cells. It was next tested whether MIF pharmacologic inhibitors were capable of recapitulating the destabilizing effects on HIF-1α we had observed using MIF siRNA (FIG. 4). In addition to testing the newly-determined MIF antagonist 4-iodo-6-phenylpyrimidine (also referred to as “compound #16”), the TI compound identified in the Orita screen (FIG. 8) was also tested.

VEGF = assay: CoCl2-induced VEGF expression and secretion (ELISA); assay type: cell-based; settings: read-out: suppression of PHD inhibitor (CoCl2) induced VEGF
From the text: It was next tested whether the observed differences in the catalytic inhibitory activities between these two compounds was similarly observed in this biological assay of MIF inhibition. […] Of note, this ˜5 fold difference in biological inhibitory activity closely corresponds to the ˜5 fold difference in enzymatic inhibitory activity that was observed when comparing these two compounds (FIG. 8).

HIF-1α [2] = assay: HIF-1α stabilization in MIF-containing and MIF-deficient mouse embryonic fibroblasts; assay type: cell-based; settings: FIG. 9C
Method: as §1
Lastly, in order to verify that the effect of #16 on HIF-1α inhibition is through its inhibitory effects on MIF, MIF-containing cells and MIF-deficient cells were tested for inhibitory activity.

[3] = tested on: A549 human lung adenocarcinoma cells; assay: A549 anchorage-independent growth in soft agar; assay type: cell-based; settings: FIG. 11; for inhibition of A549 soft agar growth: 10, 50 or 100 μM, 20 days
Method: FIG. 11 is a graph showing inhibitors of MIF prevent anchorage-independent growth. 10^5 A549 human lung adenocarcinoma cells were plated in soft agar, containing vehicle (0.1% DMSO) or 10, 50 or 100 μM ISO-1 or 4-iodo-6-phenylpyrimidine (CMPD 16). 20 days later, colonies were stained and enumerated. Data are representative of two independent experiments.

[4] = tested on: A549 human lung adenocarcinoma cells; assay: A549 NSCLC xenograft tumor outgrowth; assay type: in vivo, Balb/c (nu/nu) mice; settings: 2 mg intraperitoneally every day; vehicle mice developed lesions beginning at day 16; FIG. 12
Method: FIG. 12 is a graph showing Inhibition of NSCLC tumor growth by the MIF inhibitor 4-iodo-6-phenylpyrimidine. Balb/c (nu/nu mice were injected with 1×10^6 A549 human lung adenocarcinoma cells subcutaneously (4 mice/group). Vehicle or 4-iodo-6-phenylpyrimidine (Cmpd 16; 2 mg) were injected intraperitoneally every day for the course of the study. Tumor growth was monitored by palpation every fourth day as indicated. Results are expressed as percent of tumor free mice/group.
In a study designed to evaluate the in vivo efficacy of anti-MIF compounds, 4-iodo-6-phenylpyrimidine (compound #16) was tested in a xenograft model of human non-small cell lung cancer (NSCLC) outgrowth.

[5] = MTD / toxicity study, daily injections for 7 days; assay type: in vivo; settings: daily injections for 7 days of 0.5, 1, 2 and 4 mg (25, 50, 100 and 200 mg/kg)
From the text: (§2) A study to determine the MTD and in vivo inhibitory activity of compound #16 was also completed. […] In vivo enzyme inhibition by compound #16 was next analyzed. […] Further, the discovery of the present MIF inhibitory compounds of Formula I disclosed herein by the present novel virtual screening and systematic testing methods validates the present approach and experimental design to identify further MIF small molecule inhibitors.

endogenous liver MIF = molecular target: T2, endogenous liver MIF (Mus musculus, UniProt P34884); assay: In vivo inhibition of liver MIF tautomerase activity; parameters: species or system C57BI/6 mice; settings: single bolus injection 50 mg/kg, 6 hours post-injection, FIG. 13, read-out: inhibition of endogenous liver MIF enzyme tautomerase activity
T2 construct: from tissue; host or cells: mouse liver homogenate
Method: FIG. 13 is a graph showing the MIF inhibitor 4-iodo-6-phenyl pyrimidine inhibits MIF in vivo. C57BI/6 mice were injected with corn oil or 1 mg 4-iodo-6-phenyl pyrimidine (# 16) suspended in corn oil for 6 hours before removal of the livers. After homogenizing tissue, […] total liver protein was assessed for L-dopachrome methyl ester tautomerase activity.
as §2

MIF/sCD74 = molecular target: T3, MIF/sCD74 (Homo sapiens, UniProt P14174); assay: MIF/MIF receptor (CD74) capture assay; assay type: binding; settings: 0.1 μM antagonist against 0.2 μM biotinylated MIF (maximal inhibition possible 50%); FIG. 14B
T3 construct: made in house; host or cells: E. coli BL21 (DE3)pLysS (sCD74)
T3 sequence (P14174 2-115 limits assumed): T1 sequence (P14174 2-115 limits assumed)
Method: FIGS. 14A-14C are a schematic (FIG. 14C) of a MIF/MIF receptor capture assay and graphs of data collected from the assay (FIGS. 14A and 14B) that provides a tool for structure-function studies of MIF muteins and candidate inhibitors. […] FIG. 14A is a graph of data from the assay where CD74 coated plates were pre-incubated with the indicated concentrations of native MIF (MIF), denatured MIF or P1G MIF followed by the addition of 0.2 μM biotin-hrMIF. FIG. 14B is a graph of data from the assay where 1.0 μM of denatured MIF (dMIF), native MIF (MIF) or anti-CD74 were pre-incubated with soluble CD74 for 30 mins before adding 0.2 μM biotin-hrMIF. For inhibitors, 0.1 μM ISO-1 or 4-iodo-6-phenyl pyrimidine (Cmp16) were pre-incubated for 30 mins with 0.2 μM biotin-hrMIF before adding mixture to CD74 coated plate. In both FIGS. 14A and 14B, plates were developed 2 hours later by incubating Streptavidin-AP followed by PnPP and measurement at OD405.
As previously noted, the ability of small molecule antagonists to block MIFs biological functions requires the blockade of MIF binding to its cell surface receptor (Meyer-Siegler et al., 2006). […]
96 well plates can be coated with 60 μl/well of purified, soluble CD74 (CD74^73-232) at 0.1 mg/ml and incubated at 4° C. overnight. […] After washing, 60 μl/well of PNPP (Sigma) is added and allowed to develop in the dark until being read at 405 nm.

HIF-1α [6] = assay: Total HIF-1α ELISA, CoCl2-induced HIF stabilization; assay type: cell-based; settings: Homo sapiens, compound #16 at 50 μM, read-out: inhibition of CoCl2-induced HIF stabilization, of control
From the text: Screening of HIF-1α de-stabilization by candidate MIF inhibitors. The presently disclosed discovery that MIF plays a central role in HIF stability was from studies done in pancreatic adenocarcinoma cell lines. […] This cell line can be utilized for large scale testing of candidate MIF antagonists. In order to scale up this in vitro screen, a DuoSet ELISA-based assay to detect total HIF-1α in human cell lysates can be utilized (R & D Systems). […] MIA-Paca-2 cells can be plated at 5×10^5 cells/well in 24 well plates for 16 hours. Media can be replaced with fresh media containing 0.1% DMSO (− control), 50 μM #16 (+ control) and 5, 50 μM concentrations of test inhibitor, all in duplicate wells. After 1 hour, cells can be challenged with 150 μM CoCl2 for an additional 6 hours. After rinsing the cells twice with PBS, supplied kit lysis buffer can be used to lyse the cells following manufacturer's directions. Prior coating and blocking of HIF-1α capture antibody can be performed according to instructions and diluted cell lysates can be assayed on the HIF-1α ELISA plates.

A549 cells = assay: A549 cell migration in collagen coated transwell chambers; assay type: cell-based, human; settings: FIG. 10B
Method: In FIG. 10A, 500 nM rMIF was pre-mixed for 30 seconds with the indicated inhibitor concentrations followed by the addition of 2 mM final concentration of L-dopachrome methyl ester substrate. 5 minutes later OD 475 was measured spectrophotometrically (tautomerization leads to colorless substrate) and resulting data graphed. In FIG. 10B, 2×10^5 A549 cells transfected or pre-incubated with the indicated inhibitor or DMSO were added to the upper chamber of collagen coated transwell chambers. 16 hours later cells in the upper chamber were removed by swabbing and the bottom of the membranes were stained with crystal violet, solubilized, read at OD 570, and resulting data graphed.

MIF = MIF depletion by siRNA in MIA-Paca-2 cells (immunoblot); assay type: cell-based, human; settings: FIG. 4A
Method: (§3) Nuclear and cytosolic extracts from MIF-depleted cells were exposed to normoxia, anoxia (FIG. 4A) or hypoxia (FIG. 4B) and immunoblotted for HIF-1α. FIG. 4C is a graph showing real time PCR analysis of VEGF mRNA levels from control and MIF-depleted cells exposed to hypoxia for different times.
(§4) MIF-specific siRNA was transfected into MIA-Paca-2 cells before being incubated in 0.2% O2 (anoxia) for 16 hours. […] To more thoroughly investigate the requirements for MIF in hypoxia-mediated HIF-1α stabilization, a time course evaluating MIF containing vs. deficient pancreatic adenocarcinoma cells exposed to 1% O2 (hypoxia) was performed.

HIF-1α [7] = assay: Anoxia-induced HIF-1α stabilization in siRNA transfected MIA-Paca-2 cells; assay type: cell-based, human; settings: 0.2% O2 (anoxia) 16 hours; FIG. 4A
Method: as §3, §4

Compound: Ic1cc(-c2ccccc2)ncn1 [compound #16, 4-iodo-6-phenylpyrimidine]
IC50 (recombinant MIF (rMIF); 500 nM rMIF pre-mixed 5 or 10 min with inhibitor, 2 mM L-dopachrome methyl ester, FIG. 8, read-out: IC50, MIF enzyme (tautomerase) inhibition): ~5 µM
suppression of HIF-1α, of control (HIF-1α [1]; FIG. 9B): ~50%
inhibition of CoCl2-induced HIF-1α stabilization (HIF-1α [1]; 100 μM, pancreatic carcinoma cells, FIG. 9A): completely inhibited
difference in biological inhibitory activity (HIF-1α) between #16 and TI (HIF-1α [1]; 4-iodo-6-phenylpyrimidine versus TI): ~5 fold
inhibition at 50 µM (VEGF): > 80%
HIF-1α stabilization block in MIF-containing fibroblasts (HIF-1α [2]; MIF^+/− murine embryonic fibroblasts): potently blocks
HIF-1α stabilization in MIF-deficient fibroblasts (HIF-1α [2]; MIF^−/− fibroblasts): unaffected
inhibition of A549 soft agar growth [3]: inhibit A549 soft agar growth
potency relative to ISO-1, soft agar growth [3]: 5-10 fold
tumor outgrowth (tumor free mice) [4]: remained tumor free
toxicity [5]: no apparent toxicity
inhibition at 50 mg/kg (endogenous liver MIF): > 50%
inhibition of MIF receptor (CD74) binding (MIF/sCD74): 50%
inhibition at 50 µM (HIF-1α [6]): 75 to 90%

Compound: O=c1c(-c2ccc(O)c(O)c2)coc2cc(O)ccc12 [TI, 3′, 4′,7-tryhydroxyisoflavone, reference compound]
MIF inhibitory activity in applicant's assay compared with reported Ki (recombinant MIF (rMIF); TI from two commercial sources): several orders of magnitude weaker than claimed
suppression of HIF-1α, of control (HIF-1α [1]; FIG. 9B): no inhibitory activity
inhibition of HIF-1α stabilization (HIF-1α [1]; 50 μM, FIG. 9B): only slight inhibitory activity
inhibition at 50 µM (VEGF): ~20%

enzyme inhibition at 10 μM (recombinant MIF (rMIF); 10 μM, FIG. 10A): completely inactive
inhibition of MIF receptor (CD74) binding (MIF/sCD74): very efficient blocking
Compound: COC(=O)CC1CC(c2ccc(O)cc2)=NO1 (stereo not shown) [ISO-1, S, R-3-(4-hydroxyphenyl)-4,5-dihydro-5-isoxazole acetic acid methyl ester, reference compound]
inhibition of CoCl2-induced HIF-1α stabilization (HIF-1α [1]; concentrations of 100 μM or higher): only moderately effective
migration inhibition at 10 μM (A549 cells): completely inactive
inhibition of A549 soft agar growth [3]: inhibit A549 soft agar growth

Compound: MIF siRNA: short interfering RNA (siRNA) oligos designed against human MIF; sense SEQ ID NO:3, antisense SEQ ID NO:4 (sense CCUUCUGGUGGGGAGAAAUTT; antisense AUUUCUCCCCACCAGAAGGTT; sugars from the 5' end r19 d2, backbone not given here)
loss of cytoplasmic MIF expression (MIF): greater than 90%
HIF-1α stabilization in nuclei after MIF depletion (HIF-1α [7]): completely deficient
